Laboratory results published in US6288070A, “Triazolopurine derivatives, medicinal composition containing the derivatives, adenosine A3 receptor compatibilizing agent, and asthmatic remedy” (Otsuka Pharmaceutical Factory, Inc., priority 1998, dated 2001).
Like-named read-outs stand apart in the source and are kept apart here.

Tests used:
adenosine A2 receptor = biological target: T1, adenosine A2 receptor (Rattus norvegicus, UniProt P30543); test: Adenosine A2 receptor binding capacity
T1 construct: from tissue

adenosine A1 receptor = biological target: T2, adenosine A1 receptor (Rattus norvegicus, UniProt P25099); test: biochemical
T2 sequence (P25099 1-326): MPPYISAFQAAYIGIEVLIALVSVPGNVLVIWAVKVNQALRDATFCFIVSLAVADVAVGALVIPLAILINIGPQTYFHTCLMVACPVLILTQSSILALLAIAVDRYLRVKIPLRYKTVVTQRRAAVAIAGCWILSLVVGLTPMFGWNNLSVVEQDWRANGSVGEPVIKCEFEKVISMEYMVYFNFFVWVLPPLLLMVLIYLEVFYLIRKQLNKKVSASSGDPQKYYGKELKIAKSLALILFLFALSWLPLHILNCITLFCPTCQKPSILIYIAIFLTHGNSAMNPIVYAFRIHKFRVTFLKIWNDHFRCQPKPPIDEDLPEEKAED

adenosine A3 receptor = biological target: T3, adenosine A3 receptor (Homo sapiens, UniProt P0DMS8); test: biochemical; details: [125I]AB-MECA, membrane of HEK-293 cells transformed with A3 receptor plasmid, read-out: Receptor binding capacity (IC50) Adenosine A3
T3 construct: expressed in transfected cells; host or cells: HEK-293
T3 sequence (P0DMS8 1-318): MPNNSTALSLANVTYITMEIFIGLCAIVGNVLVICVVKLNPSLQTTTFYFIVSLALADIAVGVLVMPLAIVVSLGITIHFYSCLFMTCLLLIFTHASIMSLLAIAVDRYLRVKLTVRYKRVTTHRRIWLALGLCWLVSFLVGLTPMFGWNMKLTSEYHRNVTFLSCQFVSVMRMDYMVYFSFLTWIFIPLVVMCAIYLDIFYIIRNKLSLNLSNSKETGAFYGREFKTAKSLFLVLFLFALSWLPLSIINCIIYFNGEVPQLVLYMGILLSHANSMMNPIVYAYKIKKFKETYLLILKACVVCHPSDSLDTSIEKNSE

[1] = adenosine A2 receptor, read-out: Receptor binding capacity (IC50) Adenosine A2

T1 sequence (P30543 whole entry): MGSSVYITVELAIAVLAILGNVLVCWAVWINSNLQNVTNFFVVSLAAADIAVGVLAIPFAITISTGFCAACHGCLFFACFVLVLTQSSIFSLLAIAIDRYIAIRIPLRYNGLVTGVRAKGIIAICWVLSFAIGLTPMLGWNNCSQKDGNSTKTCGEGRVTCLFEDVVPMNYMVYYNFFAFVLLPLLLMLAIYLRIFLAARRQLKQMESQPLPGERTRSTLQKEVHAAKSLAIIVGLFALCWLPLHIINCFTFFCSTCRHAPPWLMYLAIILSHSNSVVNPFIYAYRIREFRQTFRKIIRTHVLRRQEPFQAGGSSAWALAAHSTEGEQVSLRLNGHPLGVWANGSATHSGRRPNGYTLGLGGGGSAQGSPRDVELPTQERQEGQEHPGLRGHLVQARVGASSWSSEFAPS

SMILES	IC50 (adenosine A2 receptor; [1])	IC50 (adenosine A1 receptor)	IC50 (adenosine A3 receptor)	IC50 (adenosine A2 receptor)
Cc1nc2[nH]cnc2c2nc(-c3ccccc3)nn12 [Example 1, 5-methyl-8-phenyl-1H-1,2,4-triazolo[5,1-i]purine]	–	0.101 µM	–	–
CCCCc1nc2[nH]cnc2c2nc(-c3ccco3)nn12 [Example 15]	–	0.042 µM	–	–
CCCCc1nc2nc[nH]c2c2nc(-c3ccc(SC)cc3)nn12 [Example 66]	> 10 µM	–	–	–
CCCCc1nc2[nH]cnc2c2nc(-c3ccc(N(C)C)cc3)nn12 [Example 42]	> 10 µM	–	–	–
CCCCc1nc2nc[nH]c2c2nc(-c3ccc(OC)c(OC)c3)nn12 [Example 51]	> 10 µM	–	0.0016 µM	–
CCCCc1nc2nc[nH]c2c2nc(-c3ccc(N(Cc4ccccc4)Cc4ccccc4)cc3)nn12 [Example 60]	> 10 µM	–	0.015 µM	–
CCCCc1nc2nc[nH]c2c2nc(-c3ccc(-c4ccccc4)cc3)nn12 [Example 50]	> 10 µM	–	–	–
COc1cc(-c2nc3c4[nH]cnc4nc(C)n3n2)cc(OC)c1OC [Example 2]	–	–	0.096 µM	–
CCCCc1nc2[nH]cnc2c2nc(-c3ccc(C(C)(C)C)cc3)nn12 [Example 69]	> 10 µM	–	–	–
CCCCc1nc2nc[nH]c2c2nc(-c3ccc(Oc4ccccc4)cc3)nn12 [Example 62]	> 10 µM	–	0.0066 µM	–
c1ccc(-c2nc3c4nc[nH]c4nc(-c4ccccc4)n3n2)cc1 [Example 18]	–	0.0064 µM	–	–
CCCCc1nc2[nH]cnc2c2nc(-c3cccnc3)nn12 [Example 13]	–	0.228 µM	–	–
CCCCc1nc2[nH]cnc2c2nc(-c3cc(OC)c(OC)c(OC)c3)nn12 [Example 12, 5-n-butyl-8-(3,4,5-trimethoxyphenyl)-1H-1,2,4-triazolo[5,1-i]purine]	–	1 µM	–	–
CCCCc1nc2nc[nH]c2c2nc(-c3ccc(CP(=O)(OCC)OCC)cc3)nn12 [Example 65]	–	–	0.0037 µM	> 10 µM
CCCCc1nc2nc[nH]c2c2nc(-c3ccc(OCc4ccccc4)cc3)nn12 [Example 49]	> 10 µM	–	0.0017 µM	–
CCCCc1nc2[nH]cnc2c2nc(-c3ccc(OCCC)cc3)nn12 [Example 45]	> 10 µM	–	–	–

The next lines start with results.

IC50 (adenosine A2 receptor; [1])	IC50 (adenosine A1 receptor)	IC50 (adenosine A3 receptor)	SMILES	IC50 (adenosine A2 receptor)
0.723 µM	1.3 µM	0.0011 µM	CCCCc1nc2nc[nH]c2c2nc(/C=C/c3ccccc3)nn12 [Example 17]	–
> 10 µM	–	–	CCCCc1nc2[nH]cnc2c2nc(-c3ccc(C(F)(F)F)cc3)nn12 [Example 59]	–
> 10 µM	–	0.0078 µM	CCCCc1nc2nc[nH]c2c2nc(-c3ccc(N(CC)CC)cc3)nn12 [Example 54]	–
1.8 µM	–	< 0.001 µM	CCCCc1nc2nc[nH]c2c2nc(-c3ccc(NCc4ccccc4)cc3)nn12 [Example 61]	–
> 10 µM	–	0.0051 µM	CCCCc1nc2nc[nH]c2c2nc(-c3ccc(C(C)C)cc3)nn12 [Example 68]	–
> 10 µM	–	0.0058 µM	CCCCc1nc2nc[nH]c2c2nc(-c3ccc(OC(F)(F)F)cc3)nn12 [Example 58]	–
0.716 µM	–	< 0.001 µM	CCCCc1nc2nc[nH]c2c2nc(-c3ccc4ccccc4c3)nn12 [Example 64]	–
3 µM	2.6 µM	0.095 µM	Cc1nc2nc[nH]c2c2nc(-c3cccnc3)nn12 [Example 3]	–
0.115 µM	–	–	CCCc1nc2nc[nH]c2c2nc(-c3ccccc3)nn12 [Example 23]	–
0.111 µM	–	< 0.001 µM	Cc1cccc(-c2nc3nc[nH]c3c3nc(-c4ccccc4)nn23)c1 [Example 35]	–
1.8 µM	–	0.0054 µM	CCCCc1nc2nc[nH]c2c2nc(-c3ccc(CC)cc3)nn12 [Example 67]	–
0.205 µM	–	–	CCCCCc1nc2nc[nH]c2c2nc(-c3ccccc3)nn12 [Example 34, 5-pentyl-8-phenyl-1H-1,2,4-triazolo[5,1-i]purine]	–
0.247 µM	0.178 µM	< 0.001 µM	CCCCc1nc2nc[nH]c2c2nc(-c3ccccc3O)nn12 [Example 6]	–
2.4 µM	–	0.001 µM	CCCCc1nc2nc[nH]c2c2nc(-c3ccc(NC)cc3)nn12 [Example 63]	–
0.031 µM	0.021 µM	0.0074 µM	c1ccc(-c2nc3nc[nH]c3c3nc(-c4cccnc4)nn23)cc1 [Example 20]	–
0.184 µM	–	–	CCCCc1nc2[nH]cnc2c2nc(-c3ccc(C)cc3)nn12 [Example 5]	–
0.546 µM	0.093 µM	0.0015 µM	COc1cc(-c2nc3c4[nH]cnc4nc(-c4ccccc4)n3n2)cc(OC)c1OC [Example 19]	–
3.7 µM	–	0.009 µM	CCCCCCCc1nc2nc[nH]c2c2nc(-c3ccccc3)nn12 [Example 37]	–
